According to patent US20180321220A1, “UNIVERSAL BIOELECTROCHEMICAL METABOLIC FLUX MEASUREMENT SYSTEM AND METHODS OF MAKING AND USING THE SAME” (Saint Louis University, priority 2015, published 2018):

What was measured:
mouse liver mitochondria [1] = details: pyruvate as substrate, in words; Dröse et al. cited; cited from earlier work
mouse liver mitochondria [2] = test: Metabolic flux analysis (amperometry) of mouse liver mitochondria suspension; type: biochemical; details: for attenuation of electron flux / inhibitory response (electron flux): in words; for Electron flux generated: rotenone present (1 μl of 1 mg/ml in DMSO), 120 seconds of measurement, 600 mV; for inhibitory response (electron flux): substrate not stated
Source text: (§1) Materials. Sodium phosphate monobasic (Sigma), sodium phosphate dibasic (Sigma), sodium chloride (Sigma), sodium pyruvate (Sigma), citric acid (Sigma), rotenone (Sigma), adenosine diphosphate (Sigma), sucrose (Sigma), Tris-EDTA (Sigma), Protease inhibitor cocktail (Sigma), deionized water (in house), and dimethylsulfoxide (Sigma) were used as received. All wild-type Drosophila larvae were hatched and grown on standard cornmeal-agar-molasses-yeast food at room temperature. Individual larvae were selected used for metabolic flux analysis. Mitochondria were isolated from normal mice liver. All steps were carried out at 4° C. Tissues were kept on ice. The liver tissue was homogenized in 3 volumes of Buffer A (0.33 M sucrose, 1.33 m M Tris-EDTA, pH 7.4 buffer containing protease inhibitors) using potter Dounce homogenizer. Once homogenized two more volumes of Buffer A were added and mixed before centrifugation at 1000 Xg for 10-15 mins. The supernatant was then recovered and centrifuged 2 times more to remove impurities. Finally, the supernatant was recovered and centrifuged at 15,000 Xg for 20 mins. The mitochondrial pellet recovered from the bottom of the centrifuge tube and suspended at a protein concentration of 35 mg/ml in phosphate buffered saline at pH 7.5. Once the extraction was complete the mitochondria was stored at −80° C. in small aliquots for further use.
Metabolic flux analysis. The electrochemical test setup consisted of a USTAT 200 Bipotentiostat coupled to a Dropsens SPE 110 screen printed electrode chip that included a carbon working electrode, a carbon counter electrode, and a silver reference electrode. The working substrate solution consisted of pH 7.40 10 mM phosphate buffer, 137 mM sodium chloride, 10 mM metabolic substrate, and 1 mg/ml adenosine diphosphate. The inhibitor solution consisted of 1 mg/ml rotenone in dimethyl sulfoxide. For uninhibited experiments pure dimethyl sulfoxide was used to maintain consistency. To the electrode 35 μl of substrate solution was dropped on top of the 3 electrode working area of the chip ensuring that all of the electrode surfaces were thoroughly wetted. To this drop, 1 μl of dimethyl sulfoxide was added that may or may not contain inhibitor. When the experiment was ready to begin the sample was added to the electrode. For mitochondrial suspension, 15 μL of the suspension was added to the working area of the chip. For the larvae, one larvae was placed into the drop of solution on to the working electrode. Amperometry was then performed with an applied potential of 600 mV with respect to the reference electrode for 120 seconds.

whole drosophilae larvae = test: Metabolic flux analysis (amperometry) of whole Drosophila larvae; type: in vivo
Source text: as §1, with “Once the extraction was complete the mitochondria was stored at −80° C. in small aliquots for further use.” left out
Metabolic flux analysis. […] When the experiment was ready to begin the sample was added to the electrode. […]

Row | Compound | inhibition of electron flux (mouse liver mitochondria [1]) | attenuation of electron flux (mouse liver mitochondria [2]; citrate as metabolic substrate) | Electron flux generated (mouse liver mitochondria [2]; citrate as substrate) | attenuation of electron flux (mouse liver mitochondria [2]; pyruvate as metabolic substrate) | Electron flux generated (mouse liver mitochondria [2]; pyruvate as substrate) | inhibitory response (electron flux) (mouse liver mitochondria [2]) | Electron flux generated (whole drosophilae larvae; glucose as substrate, rotenone present (1 μl of 1 mg/ml in DMSO), 120 seconds of measurement, 600 mV) | attenuation of metabolic flux (whole drosophilae larvae; glucose solution, in words)
1 | CC1=NS(=O)(=O)c2cc(Cl)ccc2N1 [diazoxide] | partial inhibition | – | – | – | – | – | – | –
2 | C=C(C)[C@H]1Cc2c(ccc3c2O[C@@H]2COc4cc(OC)c(OC)cc4[C@@H]2C3=O)O1 [rotenone] | – | did not exhibit significant inhibition | 1.536×10^−4 micromoles of electrons | diminished | 1.435×10^−4 micromoles of electrons | strong inhibitory responses | 3.302×10^−4 micromoles of electrons | diminished
3 | antimycin | – | – | – | – | – | strong inhibitory responses | – | –
